Legend:
[1] = Substrate depletion assay in cryopreserved human hepatocytes (CPHH); assay type: in vitro ADME; details: pooled cryopreserved human hepatocytes; for half-life at 1 µM: pH 7.3, test conc. 1.0E-06 M (Table S4); for half-life / hepatocyte CLint: pH 7.3, test conc. 1×10^−6 M, n = 3
Experimental: Microsomal stability was determined for the TbB ligands by monitoring the presence of compound after incubation in CPHH and HLM, as shown in Figure 7 and Figure S18 of the Supporting Information. […] Such an observation with NCEs is common because, with HLM, NADPH is used as a cofactor, thereby focusing mainly on phase 1 oxidation pathways such as P450 metabolism. Although additional enzymes, such as UDP-glucuronosyltransferase (UGTs), are present in HLM, the lack of the associated necessary cofactors prevents them from being functionally active (e.g., uridine diphosphate glucuronic acid (UDPGA)). In contrast, all the three TbB ligands metabolized in cryopreserved hepatocytes (Figure 7). […] The reason could be that hepatocytes have all the necessary enzymes and cofactors for the metabolic processes. Since they contain the complete set of oxidative/reductive, hydrolytic, and conjugative drug metabolizing enzymes found in the liver, they are regarded as the gold standard. Therefore, they are preferred in vitro options for expressing metabolic stability as substrate depletion, total metabolic clearance, and T 1/2 [29].
From the plot shown in Figure S18 of the Supporting Information, it can be inferred that the TbB ligands undergo slow biotransformation in HLM. Such high metabolic stability may result in drug interactions leading to toxicity of the parent compound. On the contrary, TbB ligands are undergoing rapid biotransformation in CPHH (Figure 7), and this may lead to generation of metabolites that are either toxic, active, or nonactive. Metabolic stability is typically expressed by in vitro half-life T 1/2 and intrinsic clearance (CLint) terms. Intrinsic clearance (CLint) is measured using the substrate depletion method. It describes the maximum liver (microsomal proteins or hepatocytes) activity towards a compound not affected by other physiological factors such as hepatic blood flow and drug binding within the blood matrix. T 1/2 is used to express the time for the 50% disappearance of the parent compound. A possible explanation for the difference in metabolic stability might be that the TbB ligands bind to microsomes during incubation. This can result in decreased free TbB ligand levels available to interact with metabolizing enzymes, reducing apparent intrinsic clearance values.
The test compound stability in a pooled human cryopreserved hepatocytes was tested after thawing, washing, and resuspending the cryopreserved hepatocytes in Krebs–Heinslet buffer (pH 7.3). The onset of reaction happens by the addition of the test compound into cell suspension and incubated for 0, […], 1, 1.5, and 2 h, respectively, at 37 °C/5% CO 2 . The reaction is terminated in the incubation mixture by the addition of acetonitrile. After thorough sample mixing, the sample was completely transferred to another 96-well plate and centrifuged, followed by HPLC-MS/MS analysis of supernatant. Four compounds as reference, namely, propranolol, a relatively stable and readily metabolizing flurazepam, naloxone, and HFC (7-hydroxy-4-trifluoromethyl-coumarin) in human hepatocytes were included in each assay. Data analysis was performed as mentioned above and the intrinsic clearance (CLint) is calculated from the half-life using the following equation. CLint(μL/min/millioncells)=0.693/T1/2×CellDensity.

CYP2C19 = target: T1, CYP2C19 (Homo sapiens, UniProt P33261); assay: Single concentration Kobs assay (time-dependent inhibition) in HLM; assay type: biochemical; details: for Kobs 2C19: HLM, 0.02 min^−1 indicates TD inhibition potential; for Kobs 2C19 / inhibition at 30 min: single concentration; for Single concentration Kobs assay (risk bin) 2C19: TD inhibition class from Kobs vs 0.02 min^−1 (Table 5 traffic lights); for inhibition at 30 min: human, human liver microsomes, significant if >50%, read-out: 2C19 R_Inh% (reversible inhibition)
T1 construct: Using HLM as the enzyme source; from tissue; host or cells: human liver microsomes
Source text: (§1) CYP inhibition evaluation is typically performed by either IC50 at single-point or IC50 Shift or abbreviated assay such as the first-order inactivity rate constant (K obs ) at single concentration.
(§2) This method yielded good correlations between the percent inhibition at 10 or 25 μ M and kinact/KI. Evaluation of TD inhibition at single concentration has been implemented in several drug discovery programs. […] Therefore, in this study, a single K obs approach has been utilized to understand the TD inhibition potential of TbB ligands. Ideally, the inhibition of CYPs can be reversible or irreversible. The data obtained from single-concentration K obs studies were analyzed to understand the same. From the data presented in Table 4, the TbB ligands have values less than 50% for reversible inhibition (R_Inh). As the qualified % reversible inhibition is considered significant if >50%, no significant reversible inhibition is observed for TbB ligands. Knowledge about enzyme inactivation half-life (E½) is also equally important as it would provide insight into the TD inhibition of a compound. E½ can be used to bin the compounds as positive or negative TD inhibitors if the values are <28 or >28, respectively. The TbB ligand 223-2 is observed to be a weak positive TD inhibitor of 1A2 and is negative TD inhibitor to the other six CYP isoforms.
(§3) The time-dependent inhibition (TDI) potential of test compounds against CYP1A2, 2B6, 2C8, 2C9, 2C19, 2D6, 3A4/5 isoforms were determined using Human liver microsomes. Assay is performed in 96-deep well plate format (n = 1). Positive controls and DMSO as negative control in each assay. To obtain 100 μ M working stock solution, 1 μ L of blank DMSO/test/reference compounds to 100 μ L 1× DPBS buffer was added and labeled as dilution plate. To the primary incubation plate, 45 μ L of primary mix was dispensed to the desired wells containing 25 μ L HLM, 10 μ L MgCl2, and 10 μ L of NADPH working solutions. To the secondary incubation plate, 95 μ L of secondary mix was dispensed to the desired wells containing 20 μ L MgCl2, 20 μ L NADPH, 10 μ L respective substrates for CYP isoform working solutions and 45 μ L 1× DPBS buffer. […] Pre-incubated the dilution plate along with primary incubation plate at 37 °C for 15 min at 450 rpm. The reaction was carried out in triplicate. After the incubation, the reaction was quenched by adding 150 μ L ice cold stop solution to all the wells followed by centrifuging the samples at 4000 rpm, 4 °C for 15 min. The supernatant samples were then transferred into vials for LC-MS/MS analysis. […]

CYP2C9 = target: T2, CYP2C9 (Homo sapiens, UniProt P11712); assay: as above; assay type: biochemical; details: for Kobs 2C9: HLM, 0.02 min^−1 indicates TD inhibition potential; for Kobs 2C9 / inhibition at 30 min: single concentration; for Single concentration Kobs assay (risk bin) 2C9: TD inhibition class from Kobs vs 0.02 min^−1 (Table 5 traffic lights); for inhibition at 30 min: human, human liver microsomes, significant if >50%, read-out: 2C9 R_Inh% (reversible inhibition)
T2 construct: Using HLM as the enzyme source; from tissue; host or cells: human liver microsomes
Source text: as §1, §2, §3

T2 sequence (P11712 whole entry): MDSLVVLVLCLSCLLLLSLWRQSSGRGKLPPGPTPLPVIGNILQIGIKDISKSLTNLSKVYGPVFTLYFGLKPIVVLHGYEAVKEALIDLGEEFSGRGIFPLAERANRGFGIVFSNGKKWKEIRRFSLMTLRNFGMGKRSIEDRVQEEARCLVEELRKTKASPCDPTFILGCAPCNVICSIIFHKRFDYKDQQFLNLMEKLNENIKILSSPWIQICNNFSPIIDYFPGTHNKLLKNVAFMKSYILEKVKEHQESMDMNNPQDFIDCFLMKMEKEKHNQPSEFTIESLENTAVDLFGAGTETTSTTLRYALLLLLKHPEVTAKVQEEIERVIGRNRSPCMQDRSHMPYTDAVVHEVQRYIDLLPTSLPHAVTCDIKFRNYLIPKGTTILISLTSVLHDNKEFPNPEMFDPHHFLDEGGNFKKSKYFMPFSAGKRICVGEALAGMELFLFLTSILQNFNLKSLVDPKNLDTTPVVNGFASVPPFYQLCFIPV
T1 sequence (P33261 whole entry): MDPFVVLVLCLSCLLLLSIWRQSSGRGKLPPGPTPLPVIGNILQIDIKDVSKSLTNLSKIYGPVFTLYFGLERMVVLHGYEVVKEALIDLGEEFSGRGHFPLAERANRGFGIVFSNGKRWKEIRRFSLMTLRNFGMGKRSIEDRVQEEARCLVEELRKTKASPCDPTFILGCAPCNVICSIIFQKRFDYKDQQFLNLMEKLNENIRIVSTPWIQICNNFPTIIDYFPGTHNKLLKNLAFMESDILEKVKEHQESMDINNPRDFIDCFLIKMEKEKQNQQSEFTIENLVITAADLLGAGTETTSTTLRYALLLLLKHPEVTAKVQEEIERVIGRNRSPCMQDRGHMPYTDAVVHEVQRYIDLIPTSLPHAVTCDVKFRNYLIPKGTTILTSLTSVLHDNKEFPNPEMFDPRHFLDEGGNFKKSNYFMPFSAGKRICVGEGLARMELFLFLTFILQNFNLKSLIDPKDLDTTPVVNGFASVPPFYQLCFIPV

half-life at 1 µM [1] [min] | half-life [1] [min] | hepatocyte CLint [1] [µL/min/1e6 cells] | Kobs 2C19 (CYP2C19) [min⁻¹] | Kobs 2C19 (CYP2C19; listed as 223-02) [min⁻¹] | Single concentration Kobs assay (risk bin) 2C19 (CYP2C19) | inhibition at 30 min (CYP2C19) [%] | Kobs 2C9 (CYP2C9) [min⁻¹] | Single concentration Kobs assay (risk bin) 2C9 (CYP2C9) | inhibition at 30 min (CYP2C9) [%] | Kobs 2C19 (CYP2C19; listed as 223-03) [min⁻¹] | Kobs 2C9 (CYP2C9; listed as 223-03) [min⁻¹] | Structure (SMILES)
33 | 33 | 29.8 | 0.0206 | 0.02058 | weak positive inhibitor | < 50 | 0.005304 | negative inhibitor | < 50 |  |  | COc1cc(-c2nnn(-c3cc(OC)c(O)c(OC)c3)n2)cc(OC)c1O [223-2]
36 | 36 | 27.8 | 0.00365 |  | negative inhibitor | < 50 |  | positive inhibitor | < 50 |  |  | Oc1ccc(-c2nnn(-c3ccc(O)cc3)n2)cc1 [223-10]
54 | 54 | 18.4 | 0.0306 |  | positive inhibitor | < 50 | 0.0748 | positive inhibitor | < 50 | 0.03055 | 0.07477 | Cc1cc(-c2nnn(-c3cc(C)c(O)c(C)c3)n2)cc(C)c1O [223-3]
